Activity calls are given as the source filed them. The rule behind the calls is not given here. Where a SMILES comes first, the peptide text is derived from it. Bridges are numbered along the chain shown (N, C = ends). [ ]: non-standard residue; d: D form. The star is where a group is joined. X1 = CC[C@H](C)CCCCC(=O)*; dDab = NCC[C@@H](N)C(=O)O; Dab = NCC[C@H](N)C(=O)O
Experiments:
Staphylococcus aureus [1] = assay: Induction of morphological changes in Staphylococcus aureus ATCC 25923 assessed as membrane disruption at 2 times of MIC incubated for 30 to 120 mins by SEM analysis; assay type: functional, organism-based; conditions: time 30-120 min
Staphylococcus aureus [2] = assay: Antibacterial activity against Staphylococcus aureus ATCC 25923 incubated for 18 hrs in presence of 10% serum by broth microdilution method; assay type: functional, organism-based
Pseudomonas aeruginosa [3] = assay: Bactericidal activity against Pseudomonas aeruginosa ATCC 27853 assessed as bacterial killing at 1 to 4 times of MIC by time-kill kinetics assay; assay type: functional, organism-based; conditions: time <= 360.0 min
Cell membrane [4] = assay: Disruption of outer membrane integrity in Pseudomonas aeruginosa ATCC 27853 assessed as increase in fluorescence intensity at 4 times of MIC measured for 12 mins by NPN uptake assay; assay type: subcellular
Pseudomonas aeruginosa [5] = assay: Induction of morphological changes in Pseudomonas aeruginosa ATCC 27853 assessed as content leakage at 2 times of MIC incubated for 30 to 120 mins by SEM analysis; assay type: functional, organism-based; conditions: time 30-120 min
Pseudomonas aeruginosa [6] = assay: Antibiofilm activity in Pseudomonas aeruginosa ATCC 27853 assessed as inhibition of biofilm formation at 1/2 times of MIC incubated for 24 hrs by crystal violet staining based analysis; assay type: functional, organism-based
Klebsiella pneumoniae [7] = assay: Antibacterial activity against Klebsiella pneumoniae ATCC 700603 infected in male Balb/c mouse model of pneumonia assessed as decrease in decrease in IL-1beta level in lung at 5 mg/kg, ip administered at 4 and 12 hrs post-infected and measured after 24 hrs by ELISA; assay type: functional, organism-based; conditions: time 20.0 hrs
DNA [8] = assay: Binding affinity to Pseudomonas aeruginosa ATCC 27853 DNA at 1 to 8 times of MIC measured after 30 mins by agarose gel electrophoresis; assay type: nucleic-acid assay
Pseudomonas aeruginosa [9] = assay: Bactericidal activity against Pseudomonas aeruginosa ATCC 27853 assessed as bacterial killing measured upto 360 mins by time-kill kinetics assay; assay type: functional, organism-based
Staphylococcus aureus [10] = assay: Bactericidal activity against Staphylococcus aureus ATCC 25923 assessed as bacterial eradication at 1 times of MIC measured after 360 mins by time-kill kinetics assay; assay type: functional, organism-based
Cell membrane [11] = assay: Disruption of outer membrane integrity in Pseudomonas aeruginosa ATCC 27853 assessed as increase in fluorescence intensity at 1 times of MIC measured for 12 mins by NPN uptake assay; assay type: subcellular
Pseudomonas aeruginosa [12] = assay: Antibacterial activity against Pseudomonas aeruginosa ATCC 27853 assessed as inhibition of bacterial growth compound pretreated with 32 microg/ml of LPS for 1 hrs followed by bacterial addition and measured after 18 hrs by absorbance based assay; assay type: functional, organism-based
Cell membrane [13] = assay: Disruption of membrane integrity in Pseudomonas aeruginosa ATCC 27853 at 2 times of MIC incubated for 30 to 120 mins by SEM analysis; assay type: subcellular; conditions: time 30-120 min
Cell membrane [14] = assay: Induction of inner membrane permeabilization in Escherichia coli ML-35 ATCC 43837 assessed as increase in […] measured for 135 mins by ONPG based analysis; assay type: subcellular
Pseudomonas aeruginosa [15] = assay: Antibacterial activity against Pseudomonas aeruginosa ATCC 27853 incubated for 18 hrs in presence of 10% serum by broth microdilution method; assay type: functional, organism-based
Staphylococcus aureus [16] = assay: Antibacterial activity against Staphylococcus aureus ATCC 25923 incubated for 18 hrs in presence of 2.5% serum by broth microdilution method; assay type: functional, organism-based
DNA [17] = assay: Binding affinity to Staphylococcus aureus ATCC 25923 DNA at 1 to 8 times of MIC measured after 30 mins by agarose gel electrophoresis; assay type: nucleic-acid assay
Staphylococcus aureus [18] = assay: Antibacterial activity against Staphylococcus aureus ATCC 25923 incubated for 18 hrs in presence of 5% serum by broth microdilution method; assay type: functional, organism-based
Staphylococcus aureus [19] = assay: Antibacterial activity against methicillin-resistant Staphylococcus aureus ATCC 33591 infected in male Balb/c mouse model of full thickness skin wound assessed as reduction in bacteria in skin wound at 1 mg/ml pre-infected with bacteria for 1 hrs followed by compound administration at 1,24,48 and 72 hrs post infection and measured after 10 days by photographic analysis; assay type: functional, organism-based; conditions: time 10.0 day
Pseudomonas aeruginosa [20] = assay: Induction of morphological changes in Pseudomonas aeruginosa ATCC 27853 assessed as blister formation at 2 times of MIC incubated for 30 to 120 mins by SEM analysis; assay type: functional, organism-based; conditions: time 30-120 min
Pseudomonas aeruginosa [21] = assay: Induction of morphological changes in Pseudomonas aeruginosa ATCC 27853 assessed as cell adhesion at 2 times of MIC incubated for 30 to 120 mins by SEM analysis; assay type: functional, organism-based; conditions: time 30-120 min
Staphylococcus aureus [22] = assay: Bactericidal activity against Staphylococcus aureus ATCC 25923 assessed as bacterial killing measured upto 360 mins by time-kill kinetics assay; assay type: functional, organism-based
Staphylococcus aureus [23] = assay: Induction of morphological changes in Staphylococcus aureus ATCC 25923 assessed as cellular fragmentation at 2 times of MIC incubated for 30 to 120 mins by SEM analysis; assay type: functional, organism-based; conditions: time 30-120 min
Pseudomonas aeruginosa [24] = assay: Bactericidal activity against Pseudomonas aeruginosa ATCC 27853 assessed as bacterial eradication at 4 times of MIC measured within 30 mins by time-kill kinetics assay; assay type: functional, organism-based
Staphylococcus aureus [25] = assay: Induction of morphological changes in Staphylococcus aureus ATCC 25923 assessed as cell adhesion at 2 times of MIC incubated for 30 to 120 mins by SEM analysis; assay type: functional, organism-based; conditions: time 30-120 min
Pseudomonas aeruginosa [26] = assay: Induction of morphological changes in Pseudomonas aeruginosa ATCC 27853 assessed as cellular fragmentation at 2 times of MIC incubated for 30 to 120 mins by SEM analysis; assay type: functional, organism-based; conditions: time 30-120 min
Klebsiella pneumoniae [27] = assay: Antibacterial activity against Klebsiella pneumoniae ATCC 700603 infected in male Balb/c mouse model of pneumonia assessed as decrease in decrease in IL-6 level in lung at 5 mg/kg, ip administered at 4 and 12 hrs post-infected and measured after 24 hrs by ELISA; assay type: functional, organism-based; conditions: time 20.0 hrs
Staphylococcus aureus [28] = assay: Induction of morphological changes in Staphylococcus aureus ATCC 25923 assessed as blister formation at 2 times of MIC incubated for 30 to 120 mins by SEM analysis; assay type: functional, organism-based; conditions: time 30-120 min
Staphylococcus aureus [29] = assay: Bactericidal activity against Staphylococcus aureus ATCC 25923 assessed as bacterial eradication at 2 times of MIC measured after 120 mins by time-kill kinetics assay; assay type: functional, organism-based
Pseudomonas aeruginosa [30] = assay: Bactericidal activity against Pseudomonas aeruginosa ATCC 27853 assessed as bacterial eradication at 2 times of MIC measured within 30 mins by time-kill kinetics assay; assay type: functional, organism-based
Pseudomonas aeruginosa [31] = assay: Antibacterial activity against Pseudomonas aeruginosa ATCC 27853 incubated for 18 hrs in presence of 2.5% serum by broth microdilution method; assay type: functional, organism-based
Cell membrane [32] = assay: Disruption of membrane integrity in Staphylococcus aureus ATCC 25923 at 2 times of MIC incubated for 30 to 120 mins by SEM analysis; assay type: subcellular; conditions: time 30-120 min
Pseudomonas aeruginosa [33] = assay: Bactericidal activity against Pseudomonas aeruginosa ATCC 27853 assessed as bacterial eradication at 1 times of MIC measured within 30 mins by time-kill kinetics assay; assay type: functional, organism-based
Staphylococcus aureus [34] = assay: Bactericidal activity against Staphylococcus aureus ATCC 25923 assessed as bacterial eradication at 4 times of MIC measured after 120 mins by time-kill kinetics assay; assay type: functional, organism-based
Klebsiella pneumoniae [35] = assay: Antibacterial activity against Klebsiella pneumoniae ATCC 700603 infected in male Balb/c mouse model of pneumonia assessed as decrease in bacterial load in lung at 5 mg/kg, ip administered at 4 and 12 hrs post-infected and measured after 24 hrs by agar plate method; assay type: functional, organism-based; conditions: time 20.0 hrs
Staphylococcus aureus [36] = assay: Induction of morphological changes in Staphylococcus aureus ATCC 25923 assessed as content leakage at 2 times of MIC incubated for 30 to 120 mins by SEM analysis; assay type: functional, organism-based; conditions: time 30-120 min
Pseudomonas aeruginosa [37] = assay: Induction of morphological changes in Pseudomonas aeruginosa ATCC 27853 assessed as membrane disruption at 2 times of MIC incubated for 30 to 120 mins by SEM analysis; assay type: functional, organism-based; conditions: time 30-120 min
Pseudomonas aeruginosa [38] = assay: Antibacterial activity against Pseudomonas aeruginosa ATCC 27853 incubated for 18 hrs in presence of 5% serum by broth microdilution method; assay type: functional, organism-based
Staphylococcus aureus [39] = assay: Antibacterial activity against methicillin-resistant Staphylococcus aureus ATCC 33591 infected in male Balb/c mouse model of full thickness skin wound assessed as reduction in bacterial load in skin at 1 mg/ml pre-infected with bacteria for 1 hrs followed by compound administration at 1,24,48 and 72 hrs post infection and measured 60 hrs post infection by agar plate method; assay type: functional, organism-based; conditions: time 59.0 hrs
Cell membrane [40] = assay: Disruption of outer membrane integrity in Pseudomonas aeruginosa ATCC 27853 assessed as increase in fluorescence intensity at 2 times of MIC measured for 12 mins by NPN uptake assay; assay type: subcellular
Klebsiella pneumoniae [41] = assay: Antibacterial activity against Klebsiella pneumoniae ATCC 700603 infected in male Balb/c mouse model of pneumonia assessed as decrease in decrease in TNF-alpha level in lung at 5 mg/kg, ip administered at 4 and 12 hrs post-infected and measured after 24 hrs by ELISA; assay type: functional, organism-based; conditions: time 20.0 hrs
Staphylococcus aureus [42] = assay: Bactericidal activity against Staphylococcus aureus ATCC 25923 assessed as bacterial killing at 1 to 4 times of MIC by time-kill kinetics assay; assay type: functional, organism-based; conditions: time <= 360.0 min

## CC(C)CCCCC(=O)N[C@@H](CCN)C(=O)N[C@H](C(=O)N[C@@H](CCN)C(=O)N[C@H]1CCNC(=O)[C@H]([C@@H](C)O)NC(=O)[C@H](CCN)NC(=O)[C@H](CCN)NC(=O)[C@H](CC(C)C)NC(=O)[C@@H](Cc2ccccc2)NC(=O)[C@@H](CCN)NC1=O)[C@@H](C)O.CC[C@H](C)CCCCC(=O)N[C@@H](CCN)C(=O)N[C@H](C(=O)N[C@@H](CCN)C(=O)N[C@H]1CCNC(=O)[C@H]([C@@H](C)O)NC(=O)[C@H](CCN)NC(=O)[C@H](CCN)NC(=O)[C@H](CC(C)C)NC(=O)[C@@H](Cc2ccccc2)NC(=O)[C@@H](CCN)NC1=O)[C@@H](C)O (X1-[Dab]T[Dab][Dab][dDab][dF]L[Dab][Dab]T; lactam 4-C)
Staphylococcus aureus [1]
  Activity: Active
Staphylococcus aureus [2]
  Activity: Active
Pseudomonas aeruginosa [3]
  Activity: Time-dependent-effect
Cell membrane [4]
  Activity: Active; Maximum Permeability Effects Observed
Pseudomonas aeruginosa [5]
  Activity: Active
Pseudomonas aeruginosa [6]
  Activity: inactive
Klebsiella pneumoniae [7]
  Activity: Active
DNA [8]
  Activity: Not active; Weak Binding Affinity Observed
Pseudomonas aeruginosa [9]
  Activity: Dose-dependent-effect
Staphylococcus aureus [10]
  Activity: Active
Cell membrane [11]
  Activity: Active
Pseudomonas aeruginosa [12]
  Activity: Not active; Compound Binds To Lps To Exert Its Activity
Cell membrane [13]
  Activity: Active; Pronounced Detrimental Effect Observed
Cell membrane [14]
  Activity: Active; Lower Concentration Of Compound Is Sufficient To Disrupt Inner Membrane
Pseudomonas aeruginosa [15]
  Activity: Active
Staphylococcus aureus [16]
  Activity: Active
DNA [17]
  Activity: Not active; Weak Binding Affinity Observed
Staphylococcus aureus [18]
  Activity: Active
Staphylococcus aureus [19]
  Activity: Active; Obvious Facilitation Of Wound Healing Not Observed
Pseudomonas aeruginosa [20]
  Activity: Active
Pseudomonas aeruginosa [21]
  Activity: Active
Staphylococcus aureus [22]
  Activity: Dose-dependent-effect
Staphylococcus aureus [23]
  Activity: Active
Pseudomonas aeruginosa [24]
  Activity: Active
Staphylococcus aureus [25]
  Activity: Active
Pseudomonas aeruginosa [26]
  Activity: Active
Klebsiella pneumoniae [27]
  Activity: inactive
Staphylococcus aureus [28]
  Activity: Active
Staphylococcus aureus [29]
  Activity: Active
Pseudomonas aeruginosa [30]
  Activity: Active
Pseudomonas aeruginosa [31]
  Activity: Active
Cell membrane [32]
  Activity: Active
Pseudomonas aeruginosa [33]
  Activity: Active
Staphylococcus aureus [34]
  Activity: Active
Klebsiella pneumoniae [35]
  Activity: Active
Staphylococcus aureus [36]
  Activity: Active
Pseudomonas aeruginosa [37]
  Activity: Active
Pseudomonas aeruginosa [38]
  Activity: Active
Staphylococcus aureus [39]
  Activity: Active
Cell membrane [40]
  Activity: Active
Klebsiella pneumoniae [41]
  Activity: Active
Staphylococcus aureus [42]
  Activity: Time-dependent-effect

Source: ChEMBL document CHEMBL6153094, “Rationally designed highly amphipathic antimicrobial peptides demonstrating superior bacterial selectivity relative to the corresponding α-helix peptide” (Eur J Med Chem, 2025)
